System: 616215-338-R-J1-PDC complex spheroid viability
Experiment: Anticancer human tumor 616215-338-R-J1-PDC patient-derived colon adenocarcinoma cell line growth inhibition [RAS]
Details: for IC50: curve of first compound; for viability, T/C: stronger effect = lower value
In short: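 Tumour cells grown as complex spheroids with HUVEC endothelial cells and mesenchymal stem cells, treated with RAS pathway inhibitor combinations. Each agent spans half-log steps from near clinical Cmax, or 10 microM where Cmax is unknown.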

[1] = second compound 0.000949 µM, first compound 0.00316 µM
[2] = second compound 0.000949 µM, first compound 0.01 µM
[3] = second compound 0.000949 µM, first compound 0.0316 µM
[4] = second compound 0.000949 µM, first compound 0.1 µM
[5] = second compound 0.003 µM, first compound 0.00316 µM
[6] = second compound 0.003 µM, first compound 0.01 µM
[7] = second compound 0.003 µM, first compound 0.0316 µM
[8] = second compound 0.003 µM, first compound 0.1 µM
[9] = second compound 0.00949 µM, first compound 0.00316 µM
[10] = second compound 0.00949 µM, first compound 0.01 µM
[11] = second compound 0.00949 µM, first compound 0.0316 µM
[12] = second compound 0.00949 µM, first compound 0.1 µM
[13] = second compound 0.03 µM, first compound 0.00316 µM
[14] = second compound 0.03 µM, first compound 0.01 µM
[15] = second compound 0.03 µM, first compound 0.0316 µM
[16] = second compound 0.03 µM, first compound 0.1 µM
[17] = second compound 0.0949 µM, first compound 0.00316 µM
[18] = second compound 0.0949 µM, first compound 0.01 µM
[19] = second compound 0.0949 µM, first compound 0.0316 µM
[20] = second compound 0.0949 µM, first compound 0.1 µM
[21] = second compound 0.3 µM, first compound 0.00316 µM
[22] = second compound 0.3 µM, first compound 0.01 µM
[23] = second compound 0.3 µM, first compound 0.0316 µM
[24] = second compound 0.3 µM, first compound 0.1 µM
[25] = second compound 0.000949 µM, first compound 0.316 µM
[26] = second compound 0.000949 µM, first compound 1 µM
[27] = second compound 0.003 µM, first compound 0.316 µM
[28] = second compound 0.003 µM, first compound 1 µM
[29] = second compound 0.00949 µM, first compound 0.316 µM
[30] = second compound 0.00949 µM, first compound 1 µM
[31] = second compound 0.03 µM, first compound 0.316 µM
[32] = second compound 0.03 µM, first compound 1 µM
[33] = second compound 0.0949 µM, first compound 0.316 µM
[34] = second compound 0.0949 µM, first compound 1 µM
[35] = second compound 0.3 µM, first compound 0.316 µM
[36] = second compound 0.3 µM, first compound 1 µM
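Also: spheroids exposed to agents for seven days before viability readout.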
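For viability, T/C in this document: 100% = DMSO vehicle control viability.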

CC(C)n1nc(-c2ccc3oc(N)nc3c2)c2c(N)ncnc21 + CCn1c(-c2cc(N3CCN(C)CC3)cnc2C(C)OC)c2c3cc(ccc31)-c1csc(n1)CC(NC(=O)C1CC1C)C(=O)N1CCCC(N1)C(=O)OCC(C)(C)C2
IC50 (second compound 0.000949 µM): > 100 nM
IC50 (second compound 0.003 µM): 77.1 nM
IC50 (second compound 0.00949 µM): 42.8 nM
IC50 (second compound 0.03 µM): < 0.316 nM
IC50 (second compound 0.0949 µM): < 0.316 nM
IC50 (second compound 0.3 µM): < 0.316 nM
viability, T/C (second compound 0.000949 µM, first compound 0.000316 µM): 103%
viability, T/C (second compound 0.000949 µM, first compound 0.001 µM): 93.7%
viability, T/C [1]: 110%
viability, T/C [2]: 116%
viability, T/C [3]: 118%
viability, T/C [4]: 63.8%
viability, T/C (second compound 0.003 µM, first compound 0.000316 µM): 114%
viability, T/C (second compound 0.003 µM, first compound 0.001 µM): 108%
viability, T/C [5]: 108%
viability, T/C [6]: 103%
viability, T/C [7]: 86.2%
viability, T/C [8]: 39.2%
viability, T/C (second compound 0.00949 µM, first compound 0.000316 µM): 77.2%
viability, T/C (second compound 0.00949 µM, first compound 0.001 µM): 71.4%
viability, T/C [9]: 64.5%
viability, T/C [10]: 78.8%
viability, T/C [11]: 54.8%
viability, T/C [12]: 36.4%
viability, T/C (second compound 0.03 µM, first compound 0.000316 µM): 41%
viability, T/C (second compound 0.03 µM, first compound 0.001 µM): 51.2%
viability, T/C [13]: 39.5%
viability, T/C [14]: 37.3%
viability, T/C [15]: 39%
viability, T/C [16]: 25%
viability, T/C (second compound 0.0949 µM, first compound 0.000316 µM): 41%
viability, T/C (second compound 0.0949 µM, first compound 0.001 µM): 39.3%
viability, T/C [17]: 31.8%
viability, T/C [18]: 30.9%
viability, T/C [19]: 30.9%
viability, T/C [20]: 21.3%
viability, T/C (second compound 0.3 µM, first compound 0.000316 µM): 35.9%
viability, T/C (second compound 0.3 µM, first compound 0.001 µM): 31.1%
viability, T/C [21]: 35.9%
viability, T/C [22]: 30.1%
viability, T/C [23]: 27.8%
viability, T/C [24]: 22.8%

CCN1CCN(Cc2ccc(Nc3ncc(F)c(-c4cc(F)c5nc(C)n(C(C)C)c5c4)n3)nc2)CC1 + CCn1c(-c2cc(N3CCN(C)CC3)cnc2C(C)OC)c2c3cc(ccc31)-c1csc(n1)CC(NC(=O)C1CC1C)C(=O)N1CCCC(N1)C(=O)OCC(C)(C)C2
IC50 (second compound 0.000949 µM): > 1000 nM
IC50 (second compound 0.003 µM): 695 nM
IC50 (second compound 0.00949 µM): 112 nM
IC50 (second compound 0.03 µM): < 3.16 nM
IC50 (second compound 0.0949 µM): < 3.16 nM
IC50 (second compound 0.3 µM): < 3.16 nM
viability, T/C [1]: 102%
viability, T/C [2]: 108%
viability, T/C [3]: 110%
viability, T/C [4]: 123%
viability, T/C [25]: 130%
viability, T/C [26]: 57.2%
viability, T/C [5]: 104%
viability, T/C [6]: 112%
viability, T/C [7]: 111%
viability, T/C [8]: 120%
viability, T/C [27]: 75.3%
viability, T/C [28]: 38.4%
viability, T/C [9]: 82.2%
viability, T/C [10]: 64%
viability, T/C [11]: 59.9%
viability, T/C [12]: 51.3%
viability, T/C [29]: 49.5%
viability, T/C [30]: 26.6%
viability, T/C [13]: 51%
viability, T/C [14]: 38.1%
viability, T/C [15]: 39.4%
viability, T/C [16]: 32.5%
viability, T/C [31]: 33.4%
viability, T/C [32]: 27.5%
viability, T/C [17]: 33.2%
viability, T/C [18]: 32.3%
viability, T/C [19]: 26.7%
viability, T/C [20]: 25.8%
viability, T/C [33]: 34.5%
viability, T/C [34]: 29.8%
viability, T/C [21]: 34.5%
viability, T/C [22]: 32.2%
viability, T/C [23]: 30.3%
viability, T/C [24]: 33.1%
viability, T/C [35]: 35.9%
viability, T/C [36]: 25.3%

C[C@@H](NC(=O)c1ncnc(N)c1Cl)c1ncc(C(=O)Nc2cc(C(F)(F)F)c(Cl)cn2)s1 + CCn1c(-c2cc(N3CCN(C)CC3)cnc2C(C)OC)c2c3cc(ccc31)-c1csc(n1)CC(NC(=O)C1CC1C)C(=O)N1CCCC(N1)C(=O)OCC(C)(C)C2
IC50 (second compound 0.000949 µM): 8750 nM
IC50 (second compound 0.003 µM): 6940 nM
IC50 (second compound 0.00949 µM): 1570 nM
IC50 (second compound 0.03 µM): 243 nM
IC50 (second compound 0.0949 µM): < 31.6 nM
IC50 (second compound 0.3 µM): < 31.6 nM
viability, T/C [3]: 102%
viability, T/C [4]: 104%
viability, T/C [25]: 117%
viability, T/C [26]: 105%
viability, T/C (second compound 0.000949 µM, first compound 3.16 µM): 96.3%
viability, T/C (second compound 0.000949 µM, first compound 10 µM): 43.9%
viability, T/C [7]: 114%
viability, T/C [8]: 129%
viability, T/C [27]: 102%
viability, T/C [28]: 87.2%
viability, T/C (second compound 0.003 µM, first compound 3.16 µM): 66.2%
viability, T/C (second compound 0.003 µM, first compound 10 µM): 42.6%
viability, T/C [11]: 95.3%
viability, T/C [12]: 78%
viability, T/C [29]: 72.5%
viability, T/C [30]: 61%
viability, T/C (second compound 0.00949 µM, first compound 3.16 µM): 35.8%
viability, T/C (second compound 0.00949 µM, first compound 10 µM): 21.4%
viability, T/C [15]: 58.9%
viability, T/C [16]: 62.2%
viability, T/C [31]: 42.3%
viability, T/C [32]: 41.1%
viability, T/C (second compound 0.03 µM, first compound 3.16 µM): 30%
viability, T/C (second compound 0.03 µM, first compound 10 µM): 25.1%
viability, T/C [19]: 41.9%
viability, T/C [20]: 57.1%
viability, T/C [33]: 38.5%
viability, T/C [34]: 33.2%
viability, T/C (second compound 0.0949 µM, first compound 3.16 µM): 23.2%
viability, T/C (second compound 0.0949 µM, first compound 10 µM): 16.6%
viability, T/C [23]: 36.3%
viability, T/C [24]: 35.6%
viability, T/C [35]: 39%
viability, T/C [36]: 33.7%
viability, T/C (second compound 0.3 µM, first compound 3.16 µM): 22.6%
viability, T/C (second compound 0.3 µM, first compound 10 µM): 13.2%
